Experiments:
[1] = system: integrin α3β1; test: MicroScale Thermophoresis integrin binding; design: species or system human; details: MST, n = 3
From the text: The interaction between integrins and peptide ligands in PBS was quantified by a Monolith® NT.115Pico (NanoTemper Technology, Germany) using MO. Control 1.6 software. Recombinant human integrin proteins, including alpha-3/ beta-1, alpha-5/beta-1, and alpha-6/ beta-1, were purchased from R&D Systems (USA). Recombinant integrin proteins were labeled by Monolith^TM Protein Labeling Kit RED-NHS (NanoTemper Technology) following the instruction provided by the manufacturer. The fluorescence-labeled integrin solution was mixed with peptides solution in 15 concentration gradients at a 1:1 ratio. The Monolith^TM NT.115 MST Premium Coated Capillaries (NanoTemper Technology) were applied to draw the mixed solution with the order of declining ligand concentration. Pretests were performed to ensure the protein concentration and fluorescent intensities in each tube were equal. Following that, quantitative binding affinity was measured three times.

[2] = system: HuH-7 cells; test: Cell adhesion assay, HuH-7; type: cell-based, human; details: FFFIKLLI pre-coated dishes
Experimental: The 96-well microplates wells were coated with peptide assemblies (the concentration of FFFIKLLI was kept at 100 μM constantly) for 12 hr at 37 °C before blocked with the Blocking Buffer (2% BSA, 1 mM CaCI2 and 1 mM MnCI2 in PBS) for 1 hr at 37 °C. Cells were collected from culture dishes and suspended in the Blocking Buffer containing anti-laminin-5 (P3H9-2, MAB1947, Chemicon, 5 μg/ml), anti-fibronectin (IST-9, ab6328, Abcam, 20 μg/ml) or IgG isotype control (20 μg/ml, Abcam) before immediately seeded to the coated well (20,000 cells/well) and allowed to incubate at 37 °C for 1 h. The wells were washed for three times with the Blocking Buffer and the phase-contrast images were captured by IncucyteS3 (Essen Bioscience) with a 10× objective.

[3] = FTIR microscopy of peptide assemblies; type: physicochemical; details: freeze-dried on CaF2, aqueous assembly
From the text: To prepare FTIR samples, an aliquot of the peptide solution was dropped on a TS CaF2 window (5 mm diameter) (Edmund Optics, Japan) and freeze-dried using a lyophilizer (Freeze Dryer, Labconco). The CaF2 Window with assembled nanofilaments was mounted for FTIR microscopic analysis. FTIR microscopic analysis of a plain CaF2 Window served as the reference. An FTIR microscope (Nicolet iN10, Thermo Fisher Scientific) equipped with an MCT detector was used for collecting IR spectra. Spectra ranging from 4000 to 650 cm^−1 were obtained in transmission mode, aperture of 50 μm, with the resolution of 2 cm^−1. Each spectrum was derived from an average of 128 scans for each sample.

[4] = system: paxillin Y118 phosphorylation in HuH-7 cells; test: Western blotting Paxillin / pY118 Paxillin; type: cell-based, human
Experimental: Protein lysates were prepared in ice-cold RIPA lysis, and extraction buffer (Thermo Scientific) supplemented with 1% Halt Protease Inhibitor (Thermo Scientific) and 1% Halt Phosphatase inhibitor (Thermo Scientific). Cells were scraped off from the culture surface using a cold plastic cell scraper, and the cell suspension was then gently transferred into a pre-cooled microcentrifuge tube and maintained on ice for 30 min with constant agitation before centrifuged at 21000 × g for 20 min. The supernatant was then transferred to a new tube, and the protein concentration of the supernatant was quantified according to the Pierce™ BCA Protein Assay Kit (Thermo Scientific). The rest of the supernatant was mixed with 4x laemmli sample buffer (Bio-Rad) in a 1:3 ratio and boiled at 100 °C for 10 min. Lysates can be aliquoted and stored at −80 °C freezer. When running the gel, 30 μg of protein was loaded into each well of the SDS-PAGE gels, along with a molecular weight marker (Bio-Rad). The gel was run for 2 hr at constantly 100 V to separate the proteins based on the molecular weight. The proteins were then transferred from the SDS-gel to a PVDF membrane (Bio-Rad) using a Transfer-blot turbo system (Bio-Rad). Once the membranes were blocked with Blocking One P solution (Nacalai) for 20 min at room temperature with gentle shaking, they were probed with antibodies against GAPDH (6C5, ab8245, Abcam, 1:1000), integrin beta 1 (12G10, ab30394, Abcam, 1:100), integrin alpha 3 (ASC-1, MA5-28565, Invitrogen, 1:100), integrin alpha 6 (EPR18124, ab191551, Abcam, 1:200), Phospho-Myosin Light Chain 2 (Thr18/Ser19)(pMLC, #3647, Cell Signaling Technology, 1:200) diluted in Tris-Buffered Saline containing 0.1% Tween-20 and 5% Blocking one P solution and the membrane was incubated in the dark for overnight at 4 °C with gentle shaking. The unbounded antibodies were washed out with tris-buffered saline (TBS) containing 0.1% Tween-20 (TBS- T) for 10 min for at least 6 times. […] Protein bands were quantified by measuring peak areas using ImageJ. […]

[5] = system: HuH-7 cells; test: Cell spreading evaluation (phalloidin staining); type: cell-based, human
Experimental: All microscope imaging was performed with a Zeiss LSM 780 or Olympus SD-OSR. To assess the F-actin organization after certain treatments, cells were seeded on a glass-bottom culture dish (D11130H, Matsunami). After culture with the peptides, cells were fixed with 4% paraformaldehyde phosphate buffer solution (PFA, 30525-89-4, Wako) for 10 min at room temperature, washed, and permeabilized with 0.1% Triton X-100 (Sigma) in PBS for 15 min. Cells were washed with DPBS twice and incubated with ActinRed (Rhodamine-conjugated phalloidin, R37112, Invitrogen) or ActinGreen (Alexa-Fluor-488-conjugated phalloidin, R37110, Invitrogen) for 15 min at room temperature. Cells were washed with DPBS before being imaged. Morphological characteristics, including cell spreading area and perimeter area ratio, were quantified by Image J.

[6] = relative to Ctrl = 1, 12 hr, representative blot
[7] = vin258-transfected HuH-7, 12 hr, n = 51 cells, mean

In the case of “FFFIKLLI [assembling ligand: FFF coupled to the N-terminus of IKLLI; self-assembles into nanofilaments]”, the integrin-binding affinity ([1]; PBS, integrin 2 nM, in words) is reported as “highest binding affinity”, the integrin selectivity ([1]; integrin α3β1 vs α5β1 and α6β1, integrin 2 nM) is reported as “selectively targeted integrin α3β1” and the attached cells ([2]; IgG, n = 30) is reported as 171.2 Counts / mm2. The attached cells ([2]; anti-fibronectin IST-9, n = 30) was 162.2 Counts / mm2, the attached cells ([2]; anti-laminin-5 P3H9-2, n = 30) was 157.4 Counts / mm2 and the “hydrogen bonding by FTIR” value [3] was “NH-N”. The “paxillin Y118 phosphorylation” value ([4]; HuH-7, 12 hr, n = 9) was “reduction”, the Paxillin band [4, 6] was 1.01 and the pY118Paxillin band [4, 6] was 0.34. The “Perimeter / Area” value ([5]; Tiam1/Rac1-preactivated HuH-7, 12 hr, n = 64 cells, p = 0.5635 vs Ctrl) was 0.1130 µm-1, the Spreading area ([5]; Tiam1/Rac1-preactivated HuH-7, 12 hr, n = 64 cells, p = 0.8317 vs Ctrl) was 4496 µm2 and the “Spreading area” value ([5]; glass, FN or LM-5 coated dish (order not readable), 12 hr, value 2) was 1802 µm2. The “Spreading area” value ([5]; glass, FN or LM-5 coated dish (order not readable), 12 hr, value 3) was 1763 µm2, the “Perimeter / Area” value [5, 7] was 0.2881 µm-1 and the Spreading area [5, 7] was 2047 µm2.

Reference: publication PMC9411606, “Control cell migration by engineering integrin ligand assembly” (Nature Communications, 2022)
